Experimental data reported in patent US20200181089A1, “4-ANILINO-QUINOLINE COMPOUNDS AS ANTI-CANCER AGENTS” (INSERM (INSTITUT NATIONAL DE LA SANTÉ ET DE LA RECHERCHE …, priority 2016, published 2020).
Like-named read-outs stand apart in the source and are kept apart here.

Tests used:
EZH2 transcription = assay: Ability to decrease EZH2 mRNA level in A375 (dose-response, quantitative PCR); format: cell-based; details: Homo sapiens, A-375, 96 h; A375 cells, incubated 4 days; read-out: IC50 (concentration necessary to obtain 50% of EZH2 transcription activity)
Procedure: Typically, 30000-50000 cells were plated in six-well culture plates and incubated 24 h later with increasing concentration of NIK inhibitors or vehicle. Cells were incubated with the inhibitors for 4 days prior to harvesting for RNA extraction and PCR. Total RNA was isolated from cells using the RNAeasy minikit (Qiagen) according to the manufacturer's procedure. Reverse transcription was performed using the AMV reverse transcription system (Promega), and quantitative PCR was performed with Power Sybr green (Applied Biosystems, Life Technologies, Grand Island, N.Y.) following the manufacturer's instructions. The PCR was carried out on a Step One plus Real-Time PCR system (Applied Biosystems). All analyses were done in triplicate, and a melting curve analysis was performed to control for product quality and specificity. Expression levels were calculated using the comparative method of relative quantification, with SB34 as a normalizer. The data were analyzed for statistical significance using Student's t-test. The results are presented as the mean±SEM relative to the control. Primers were obtained from primer bank or primer depot (http://pga.mgh.harvard.edu/primerbank/, https://primerdepot.nci.nih.gov), and their specificity was verified using primer blast (http://www.ncbi.nlm.nih.gov/tools/primer-blast/).
Here IC50 represents the concentration necessary to obtain 50% of EZH2 transcription activity.

A375 cells = assay: A375 cell proliferation assay (trypan blue exclusion); format: cell-based; details: Homo sapiens, A-375, treated/untreated cell number; for activity at 1 µM: A375, 1 μM; for activity at 10 µM: A375, 10 μM
Procedure: Cells were counted using a Malassez chamber. The average and standard deviation were calculated from triplicate experiments. Antiproliferative effects were evaluated by trypan blue exclusion assay. Briefly, cells were seeded into 12-well plate and grown in media supplemented with indicated compound at 1 or 10 μM for 48 h or 96 h. Cells were washed with PBS and detached by trypsinization, collected and colored by trypan blue. Dead and living cells were counted and proliferation was calculated as follow: Proliferation (%)=[(treated cell number/untreated cells number)*100].

normal human fibroblast = assay: Fibroblast viability assay (trypan blue exclusion); format: cell-based; details: 96 h
Procedure: (§1) Cell viability effects were evaluated by trypan blue exclusion assay. Briefly, cells were seeded into 12-well plate and grown in media supplemented with indicated compound at 10 μM for 96 h. Cells were washed with PBS and detached by trypsinization, collected and colored by trypan blue. Dead and living cells were counted and cell viability was calculated as follow: Viability (%)=100−[(dead cell number/total cells)*100].

normal human melanocyte = assay: Melanocyte viability assay (trypan blue exclusion); format: cell-based; details: 96 h
Procedure: as §1

[1] = tested on: normal human melanocytes or fibroblasts; assay: Proliferation of normal human melanocytes or fibroblasts; format: cell-based
B16 melanoma cells = assay: Established subcutaneous B16 melanoma in C57Bl6 mice; format: in vivo
Procedure: FIG. 3. Compound 5 treatment is effective when used alone in reducing tumor growth in vivo and potentiates the anti-PD1 immune response in C57Bl6 mice subcutaneously injected with B16 melanoma cells. B16 cells were injected subcutaneously and the tumors were let to grow until an average volume of 100 mm^3 was reached. The mice were then sorted into four groups with similar average tumor volume and standard deviation. Treatment with compound 5 (10 mg/kg) or control (DMSO) was given by intraperitoneal injection every day. Anti-PD1 antibodies (125 μg/mouse) was given every other day alone or combined with daily injection of compound 5. Number of mice for each treatment group=8.
(§2) 0.5×10^6 cells in 100 μL PBS were subcutaneously injected into 4-week-old female C57Bl/6 mice (for the B16 experiment) or Balb/c mice (for the CT26 experiments). DZNEP is an inhibitor of the catalytic activity of EZH2 and was used as an additional control.
The inventors then asked whether compound 5 was able to increase the survival rate of mice with already established tumor and, if that was the case, also in this situation was able to synergize with anti-PD1 treatment. They thus decided to use the model B16 melanoma cells in C57Bl6 mice. B16 cells were again injected subcutaneously and the tumors were let to grow until an average volume of 100 mm3 was reached. […]

[2] = Tolerability in treated CT26 tumor-bearing mice; format: in vivo; details: 10 mg/kg intraperitoneal
Procedure: In order to evaluate the new approach in different types of cancer, compound 5 was tested in colorectal cancer cells. CT26 cells were subcutaneously injected into syngeneic mice. After 3 days, the mice were treated intraperitoneally with DZNEP, compound 5, and anti-PD1 as monotherapies and combined. Additional treatments in which the mice received DZNEP or compound 5 plus anti-PD1 with an anti-CD8 antibody added to neutralize the T-cell response were included. […] Signs of tumor regression and tumor-free mice were even observed. […] The number of M1 macrophages and the percentage of M1 macrophages among the total macrophage population were increased in all the treated mice, especially in the mice that received the combination treatments (FIG. 2C). Each of the treatments increased the numbers and activation of DCs and the numbers of CD8+ and CD4+ cells infiltrating the tumors (FIG. 2D). […] Finally, CD3+ T-cells were isolated by negative selection from the spleens of the treated mice and cocultured with naïve CT26 cells.

CT26 colon-cancer cells = assay: Subcutaneous CT26 colon-cancer tumors in Balb/c mice; format: in vivo; details: compound 5 10 mg/kg, DZNEP 1 mg/kg, FIG. 2A
Procedure: A. Tumor progression in Balb/c mice subcutaneously injected with CT26 cells (0.5×10^6). After 3 days, treatment with compound 5 (10 mg/kg) or DMSO was given by intraperitoneal injection every other day starting 3 days after the first injection. Two groups of mice (with either DMSO or compound 5 treatment) were treated with anti-PD1 antibody injected subcutaneously every other day. Number of mice for each treatment group=10.
as §2
1 mg/kg DZNEP and 10 mg/kg compound 5 were used for the subsequent experiments. Tridimensional measurements were performed daily, and the tumor volume was expressed as mm^3. […] The T-cells were stained with CD8, perforin, and granzyme B antibodies and analyzed immediately by flow cytometry using a MACS-Quant Analyzer (Miltenyi Biotec, Paris, France).
Tumors were extracted and disaggregated using […] strainers. […] FoxP3 was detected by cell intranuclear staining employing the BD Pharmingen™ Mouse Foxp3 Buffer Set according to the manufacturer's instructions. IFN-γ, perforin, and granzyme B were detected by intracellular staining using the BD Cytofix/Cytoperm™ Kit following the manufacturer's instructions. […]

CT26 cells = assay: Spleen CD3+ T-cells of treated mice cocultured with naïve CT26 cells; format: in vivo; details: coculture 24 or 48 h
Procedure: 1 mg/kg DZNEP and 10 mg/kg compound 5 were used for the subsequent experiments. Tridimensional measurements were performed daily, and the tumor volume was expressed as mm^3. […] Freshly collected tumors were dissociated and stained for immune-cell infiltrate using a flow cytometer. CD3+ T cells from spleen tissue were negatively selected using myltennyi magnetic columns and put in contact with naïve CT26 cells for 24 or 48 h. The CT26 cells were subsequently stained with DAPI (0.5 μg/ml, Molecular Probes, Grand Island, N.Y., USA). The T-cells were stained with CD8, perforin, and granzyme B antibodies and analyzed immediately by flow cytometry using a MACS-Quant Analyzer (Miltenyi Biotec, Paris, France).
Spleens were extracted and disaggregated, and the cells were resuspended in PBS. T-cells were isolated by CD3 negative selection to avoid activation. […] The flow-through containing the enriched fraction of CD3 cells was collected and analyzed by flow cytometry to determine the yield of the enrichment (CD3 cells constituted a minimum 70% of the total cells collected).

Row | Compound | IC50 (EZH2 transcription) [µM] | activity at 1 µM (A375 cells; 48 h, read-out: Proliferation (%) At 1 μM - 48 H) [%] | activity at 1 µM (A375 cells; 96 h, read-out: Proliferation (%) At 1 μM - 96 H) [%] | activity at 10 µM (A375 cells; 48 h, read-out: Proliferation (%) At 10 μM - 48 H) [%] | activity at 10 µM (A375 cells; 96 h, read-out: Proliferation (%) At 10 μM - 96 H) [%] | Viability (%) at 10 μM Fibroblast (normal human fibroblast) [%] | Viability (%) at 10 μM Melanocyte (normal human melanocyte) [%] | proliferation of normal human melanocytes or fibroblasts [1] | death dependent from treatment (B16 melanoma cells; B16 experiment) | median survival (B16 melanoma cells; days from injection, treatment started at tumor volume 100 mm3, control 13 days) [days] | clinical signs of toxicity [2] | liver enzymes in the blood [2] | liver weight and systemic glycemia compared to the other mice [2] | growth of the CT26 tumors (CT26 colon-cancer cells) | killing of naïve CT26 cells by T-cells isolated from treated mice (CT26 cells)
1 | COc1ccc(Nc2ccnc3cc(Cl)ccc23)cc1 [Compound 5, 4-((4-methoxyphenyl)amino)-7-chloroquinolinium chloride] | 5 | 91 | 77.1 | 67.5 | 58.1 | 98.6 | 99.5 | Neither treatment had any effect | no death dependent from compound 5 treatment was observed | 20 | no clinical signs of toxicity | remained in the normal range | similar | – | –
2 | Nc1nccc2c1ncn2C1C=C(CO)C(O)C1O (stereo not drawn) [DZNEP] | – | – | – | – | – | – | – | – | – | – | – | – | – | significantly reduced | more effective in killing CT26 cells
